{
  "source": "patent US20020169154A1",
  "about": "“Novel methods and compositions involving trk tyrosine kinase inhibitors and antineoplastic agents” (Cephalon, Inc., priority 2001, published 2002)",
  "tested_on": "human pancreatic ductal adenocarcinoma (PDAC) xenografts (Colo-357)",
  "assay": "Survival of nude mice with orthotopically implanted human PDAC xenografts",
  "assay_type": "in vivo",
  "conditions": "orthotopic PDAC, female nu/nu mice, (I-a-ii) 10 mg/kg/dose s.c. BID five days a week, gemcitabine 100 mg/kg/dose i.p. twice per week, combination: both regimens; for mean survival time (days of dosing to death): vehicle 58, untreated 55 days",
  "experimental": "The compound of formula (I-a-ii) was formulated at 3.44 mg/mil in a vehicle of 40% polyethylene glycol (PEG) 1000 (Spectrum, Los Angeles, Calif.), 10% povidone C30 (ISP, Boudbrook, N.J.), and 2% benzyl alcohol (Specturm, Los Angeles, Calif.) in sterile injectable water.\nGemcitabine HCl (Gemzar) was obtained from Eli Lilly and Co. (Indianapolis, Ind.) as a sterile, lyophilized powder formulated with mannitol and sodium acetate, and resuspended to a concentration of 1.0 mg/ml with 0.9% sodium chloride, pH 7.0. Solutions of gemcitabine were freshly prepared for each day of dosing and filter sterilized prior to administration.\nHuman pancreatic ductal adenocarcinoma (PDAC) xenografts were obtained from the left flanks of nude mice that had been injected with 2×10^6 Colo-357 human pancreatic carcinoma cells. Colo-357 human PDAC cells were obtained from the American Type Culture Collection (ATCC) and grown to subconfluency in Minimal Essential Medium supplemented with 10% fetal bovine serum and 1% penicillin/streptomycin. Cells were MAP and mycoplasma tested by a commercial laboratory (Bio Reliance Corp.) prior to use. Xenograft tumors were harvested and carefully sectioned into 2×2 mm^2 fragments in a laminar flow hood using sterile technique (PNAS 89:5645-49, 1992; Cancer Res. 55:4670-75, 1995). Netrotic areas of the tumors were removed and discarded. The 2×2 mm tumor tissue fragments were then placed in sterile, undiluted Matrigel and ice for 60 minutes prior to implantation. (Cancer Res. 55:4670-75, 1995).\nAt approximately 8 weeks of age female nu/nu mice were anesthetized with a mixture of ketamine/xylazine given by IM injection. Following establishment of satisfactory anesthesia, a left lateral laparotomy was performed using aseptic technique, and the spleen and pancreas exteriorized by gentle traction. Two of the 2×2 mm^2 tumor xenograft fragments prepared as described above were anchored to the posterior surface of the splenic portion of the pancreas of each mouse with a 6-0 Prolene suture (Cancer Res. 56:5713-19, 1996; J. Surg. Oncol. 40:261-265, 1989). The abdominal incision was closed with 6-0 Vicryl and the skin closed with skin staples. Mice were observed daily for any signs of infection of the incision line and, following removal of the skin staples, had abdominal palpation performed twice weekly. Establishment of the orthotopic phenotype with diffuse peritoneal spread was accomplished through three serial passes of tumor tissue.\nSeven days following surgical implantation of serially passed PDAC tumor tissue, mice were randomized into five different treatment groups. Untreated mice (n=5) received no vehicle or drug treatments. […]",
  "data": [
    {"smiles": "C[C@@]12OC(C[C@@]1(O)CO)n1c3ccccc3c3c4c(c5c6ccccc6n2c5c31)CNC4=O", "note": "[formula (I-a-ii)]", "values": [
      {"measurement": "survival relative to controls or monotherapy (Kaplan-Meier-Wilcoxon), in words", "value": "trend toward improved overall survival relative to administration of controls, but the trend was not significant"},
      {"measurement": "mean survival time (days of dosing to death)", "value": 63, "unit": "days"}
    ]},
    {"smiles": "Nc1ccn([C@@H]2O[C@H](CO)[C@@H](O)C2(F)F)c(=O)n1", "note": "[gemcitabine, 2′,2′-difluorodeoxycytidine]", "values": [
      {"measurement": "survival relative to controls or monotherapy (Kaplan-Meier-Wilcoxon), in words", "value": "prolonged survival relative to the administration of controls"},
      {"measurement": "mean survival time (days of dosing to death)", "value": 97, "unit": "days"}
    ]}
  ]
}
